# Assay results published in patent US20240400555A1 (Initial Therapeutics, Inc., priority 2023, published 2024).
# System: MV-4-11 cells
# Assay: Cell Viability Assay in MV-4-11 Cells
# Assay type: cell-based
# Conditions: Homo sapiens, MV4-11, 72 h, MV-4-11 cells, 72 h, Cell-Titer Glo; read-out: IC50
# Outline: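 MV-4-11 cells at 7,000/well in IMDM with 10% FBS, exposed to compound for 72 h. Viability by CellTiter-Glo luminescence, normalized to DMSO as 100%, fitted with a four-parameter curve.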
row,Structure (SMILES),IC50 [µM]
1,"O=C(c1ccc(-n2nnc3cccnc32)cc1F)N(c1nccc2sc(CCc3ccncc3)cc12)[C@@H]1CCCNC1 [Example 503, 2-fluoro-N-[(3R)-3-piperidyl]-N-[2-[2-(4-pyridyl)ethyl]thieno[3,2-c]pyridin-4-yl]-4-(triazolo[4,5-b]pyridin-3-yl)benzamide]",2.3
2,"Cn1cc(-c2ccc(C(=O)N(c3nccc4sc(-c5ccnc(N)c5)cc34)[C@@H]3CCCNC3)c(F)c2)nn1 [Example 478, (R)—N-(2-(2-aminopyridin-4-yl)thieno[3,2-c]pyridin-4-yl)-2-fluoro-4-(1-methyl-1H-1,2,3-triazol-4-yl)-N-(piperidin-3-yl)benzamide]",0.34
3,"O=C(c1ccc(-n2nnc3cccnc32)cc1F)N(c1nccc2sc(-c3cccc(CO)c3)cc12)[C@@H]1CCCNC1 [Example 424, 2-fluoro-N-[2-[3-(hydroxymethyl)phenyl]thieno[3,2-c]pyridin-4-yl]-N-[(3R)-3-piperidyl]-4-(triazolo[4,5-b]pyridin-3-yl)benzamide]",0.11
4,"COC[C@@H]1COCCN1c1ccnc(Nc2ccc(C(=O)N(c3nccc4cccc(C)c34)[C@@H]3CCCNC3)c(F)c2)n1 [Example 943, 2-fluoro-4-(4-((R)-3-(methoxymethyl)morpholino)pyrimidin-2-ylamino)-N-(8-methylisoquinolin-1-yl)-N—((R)-piperidin-3-yl)benzamide]",0.08
5,"Cn1cc(-c2ccc(C(=O)N(c3nccc4sc(-c5ccc(S(=O)(=O)NCCN)cc5)cc34)[C@@H]3CCCNC3)c(F)c2)nn1 [Example 536, N-[2-[4-(2-aminoethylsulfamoyl)phenyl]thieno[3,2-c]pyridin-4-yl]-2-fluoro-4-(1-methyltriazol-4-yl)-N-[(3R)-3-piperidyl] benzamide]",> 10
6,"Cc1cccc2ccnc(N(C(=O)c3ccc(C#N)cc3-c3ccccn3)[C@@H]3CCCNC3)c12 [Example 335, 4-cyano-N-(8-methyl-1-isoquinolyl)-N-[(3R)-3-piperidyl]-2-(2-pyridyl)benzamide]",2.6
7,"Cc1cccc2ccnc(N(C(=O)c3ccc(-c4ccc[nH]c4=O)cc3)[C@@H]3CCCNC3)c12 [Example 332, (R)—N-(8-methylisoquinolin-1-yl)-4-(2-oxo-1,2-dihydropyridin-3-yl)-N-(piperidin-3-yl)benzamide]",2.7
8,"CC(C)n1cc(-c2cc3c(N(C(=O)c4ccc(-n5nnc6cccnc65)cc4F)[C@@H]4CCCNC4)nccc3s2)cn1 [Example 437, (R)-4-(3H-[1,2,3]triazolo[4,5-b]pyridin-3-yl)-2-fluoro-N-(2-(1-isopropyl-1H-pyrazol-4-yl)thieno[3,2-c]pyridin-4-yl)-N-(piperidin-3-yl)benzamide]",0.38
9,"Cn1cc(-c2ccc(C(=O)N(c3nccc4cc(Cc5ccccc5)ccc34)[C@@H]3CCCNC3)c(F)c2)nn1 [Example 609, (R)—N-(6-benzylisoquinolin-1-yl)-2-fluoro-4-(1-methyl-1H-1,2,3-triazol-4-yl)-N-(piperidin-3-yl)benzamide]",0.4
10,[2H]C([2H])([2H])Oc1cc(C)c2c(N(C(=O)c3ccc(-c4nnc(C)s4)nc3)[C@@H]3CCCNC3)nccc2c1 [Example 909],0.062
11,"Cc1cc(-c2cn[nH]c2)cc2ccnc(N(C(=O)c3ccc(-n4nnc5cccnc54)cc3F)[C@@H]3CCCNC3)c12 [Example 422, (R)-4-(3H-[1,2,3]triazolo[4,5-b]pyridin-3-yl)-2-fluoro-N-(8-methyl-6-(1H-pyrazol-4-yl)isoquinolin-1-yl)-N-(piperidin-3-yl)benzamide]",0.0066
12,"Cc1nnc(-c2ccc(C(=O)N(c3nccc4scc(C)c34)[C@@H]3CCCNC3)cn2)o1 [Example 919, 6-(5-methyl-1,3,4-oxadiazol-2-yl)-N-(3-methylthieno[3,2-c]pyridin-4-yl)-N-[(3R)-3-piperidyl]pyridine-3-carboxamide]",0.16
13,"Cc1cc(C(=O)N(c2nccc3cccc(C)c23)[C@@H]2CCCNC2)ccc1Nc1ncccn1 [Example 747, (R)-3-methyl-N-(8-methylisoquinolin-1-yl)-N-(piperidin-3-yl)-4-(pyrimidin-2-ylamino)benzamide]",2.7
14,"COCc1cn(-c2ccc(C(=O)N(c3nccc4scc(C)c34)[C@@H]3CCCNC3)cc2)nn1 [Example 630, (R)-4-(4-(methoxymethyl)-1H-1,2,3-triazol-1-yl)-N-(3-methylthieno[3,2-c]pyridin-4-yl)-N-(piperidin-3-yl)benzamide]",0.16
15,"Cc1cccc2ccnc(N(C(=O)c3ccc(Nc4nccc(-c5ccc(N)nc5)n4)cc3F)[C@@H]3CCCNC3)c12 [Example 720, (R)-4-((4-(6-aminopyridin-3-yl)pyrimidin-2-yl)amino)-2-fluoro-N-(8-methylisoquinolin-1-yl)-N-(piperidin-3-yl)benzamide]",0.055
16,"Cc1cccc2ccnc(N(C(=O)c3ccc(Nc4nccc(N(C)C5CCOCC5)n4)cc3F)[C@@H]3CCCNC3)c12 [Example 957, (R)-2-fluoro-4-(4-(methyl(tetrahydro-2H-pyran-4-yl)amino)pyrimidin-2-ylamino)-N-(8-methylisoquinolin-1-yl)-N-(piperidin-3-yl)benzamide]",0.023
17,"Cc1cc(C)c2c(N(C(=O)c3ccc(-c4nc(C)no4)nc3)[C@@H]3CCCNC3)nccc2c1 [Example 916, N-(6,8-dimethyl-1-isoquinolyl)-6-(3-methyl-1,2,4-oxadiazol-5-yl)-N-[(3R)-3-piperidyl]pyridine-3-carboxamide]",0.57
18,"Cc1cccc2ccnc(N(C(=O)N3CCCC(c4ncc(-c5ccccc5)[nH]4)C3)[C@@H]3CCCNC3)c12 (stereo partly drawn) [Example 341, N-(8-methylisoquinolin-1-yl)-3-(5-phenyl-1H-imidazol-2-yl)-N—((R)-piperidin-3-yl)piperidine-1-carboxamide]",0.37

# Further compounds by falling IC50, results first:
row,IC50 [µM],Structure (SMILES)
1,1.7,"Cc1cccc2ccnc(N(C(=O)c3cccc(C#CCCC(=O)NC(C)CO)c3)[C@@H]3CCCNC3)c12 (stereo partly drawn) [Example 520, 3-(5-((1-hydroxypropan-2-yl)amino)-5-oxopent-1-yn-1-yl)-N-(8-methylisoquinolin-1-yl)-N—((R)-piperidin-3-yl)benzamide]"
2,1.4,"Cc1csc2c(N(C(=O)c3ccc(-c4cn(C)nn4)cc3F)[C@@H]3CCCNC3)nccc12 [Example 677, (R)-2-fluoro-4-(1-methyl-1H-1,2,3-triazol-4-yl)-N-(3-methylthieno[2,3-c]pyridin-7-yl)-N-(piperidin-3-yl)benzamide]"
3,1.1,"C=CC(=O)NC1CCCN(C(=O)N(c2nccc3cccc(C)c23)[C@@H]2CCCNC2)C1 (stereo partly drawn) [Example 399, 3-acrylamido-N-(8-methylisoquinolin-1-yl)-N—((R)-piperidin-3-yl)piperidine-1-carboxamide]"
4,0.48,"O=C(c1ccc(-n2nnc3cccnc32)cc1F)N(c1nccc2sc(-c3ccccn3)cc12)[C@@H]1CCCNC1 [Example 365, 2-fluoro-N-[(3R)-3-piperidyl]-N-[2-(2-pyridyl)thieno[3,2-c]pyridin-4-yl]-4-(triazolo[4,5-b]pyridin-3-yl)benzamide]"
5,0.45,"Cn1ccc2ccnc(N(C(=O)c3ccc(-c4cnn5cccnc45)cc3)[C@@H]3CCCNC3)c21 [Example 303, (R)—N-(1-methyl-1H-pyrrolo[2,3-c]pyridin-7-yl)-N-(piperidin-3-yl)-4-(pyrazolo[1,5-a]pyrimidin-3-yl)benzamide]"
6,0.22,"O=C(c1ccc(Nc2nccc(N3CCOCC3)n2)cc1F)N(c1nccc2cc(F)ccc12)[C@@H]1CCCNC1 [Example 560, (R)-2-fluoro-N-(6-fluoroisoquinolin-1-yl)-4-((4-morpholinopyrimidin-2-yl)amino)-N-(piperidin-3-yl)benzamide]"
7,0.22,"Cn1cc(-c2ccc(C(=O)N(c3nccc4sc(C#CCCCO)cc34)[C@@H]3CCCNC3)cc2O)cn1 [Example 476, 3-hydroxy-N-[2-(5-hydroxypent-1-ynyl)thieno[3,2-c]pyridin-4-yl]-4-(1-methylpyrazol-4-yl)-N-[(3R)-3-piperidyl] benzamide]"
8,0.2,"Cc1nnc(-c2ccc(C(=O)N(c3nccc4c(F)ccc(C)c34)[C@@H]3CCCNC3)c(F)c2)o1 [Example 660, (R)-2-fluoro-N-(5-fluoro-8-methylisoquinolin-1-yl)-4-(5-methyl-1,3,4-oxadiazol-2-yl)-N-(piperidin-3-yl)benzamide]"
9,0.19,Cn1cc(-c2ccc(C(=O)N(c3nccc4sc(-c5ccc(-c6cn[nH]c6)cc5)cc34)[C@@H]3CCCNC3)c(F)c2)nn1 [Example 597]
10,0.18,"CC(=O)N1CCN(c2ccnc(Nc3ccc(C(=O)N(c4nccc5cccc(C)c45)[C@@H]4CCCNC4)c(F)c3)n2)CC1 [Example 933, (R)-4-((4-(4-acetylpiperazin-1-yl)pyrimidin-2-yl)amino)-2-fluoro-N-(8-methylisoquinolin-1-yl)-N-(piperidin-3-yl)benzamide]"
11,0.13,"COc1cc(C)c2c(N(C(=O)c3ccc(-c4nnc(C)s4)cn3)[C@@H]3CCCNC3)nccc2c1 [Example 864, N-(6-methoxy-8-methyl-1-isoquinolyl)-5-(5-methyl-1,3,4-thiadiazol-2-yl)-N-[(3R)-3-piperidyl]pyridine-2-carboxamide]"
12,0.12,"Cc1nnc(-c2ccc(C(=O)N(c3nccc4cc(F)cc(C)c34)[C@@H]3CCCNC3)c(F)c2)s1 [Example 833, (R)-2-fluoro-N-(6-fluoro-8-methylisoquinolin-1-yl)-4-(5-methyl-1,3,4-thiadiazol-2-yl)-N-(piperidin-3-yl)benzamide]"
13,0.067,"CCn1cc(-c2ccc(C(=O)N(c3nccc4cccc(C)c34)[C@@H]3CCCNC3)c(F)c2)nn1 [Example 821, (R)-4-(1-ethyl-1H-1,2,3-triazol-4-yl)-2-fluoro-N-(8-methylisoquinolin-1-yl)-N-(piperidin-3-yl)benzamide]"
14,0.055,"CCc1nnc(-c2ccc(C(=O)N(c3nccc4sc(C)nc34)[C@@H]3CCCNC3)c(F)c2)s1 [Example 667, (R)-4-(5-ethyl-1,3,4-thiadiazol-2-yl)-2-fluoro-N-(2-methylthiazolo[4,5-c]pyridin-4-yl)-N-(piperidin-3-yl)benzamide]"
